Read-outs that look alike come from different tables or passages of the source. Where a SMILES comes first, the peptide text is derived from it. Bridges are numbered along the chain shown (N, C = ends). Where no end group is shown, it is not given here.
Columns and labels:
[1] = target: T1, adenylyl cyclase, ROS 17/2 cells (Rattus norvegicus, UniProt P25961); assay: Adenylyl cyclase stimulation, [3H]-cyclic AMP production in ROS 17/2 cells; type: cell-based
T1 sequence (P25961 27-591): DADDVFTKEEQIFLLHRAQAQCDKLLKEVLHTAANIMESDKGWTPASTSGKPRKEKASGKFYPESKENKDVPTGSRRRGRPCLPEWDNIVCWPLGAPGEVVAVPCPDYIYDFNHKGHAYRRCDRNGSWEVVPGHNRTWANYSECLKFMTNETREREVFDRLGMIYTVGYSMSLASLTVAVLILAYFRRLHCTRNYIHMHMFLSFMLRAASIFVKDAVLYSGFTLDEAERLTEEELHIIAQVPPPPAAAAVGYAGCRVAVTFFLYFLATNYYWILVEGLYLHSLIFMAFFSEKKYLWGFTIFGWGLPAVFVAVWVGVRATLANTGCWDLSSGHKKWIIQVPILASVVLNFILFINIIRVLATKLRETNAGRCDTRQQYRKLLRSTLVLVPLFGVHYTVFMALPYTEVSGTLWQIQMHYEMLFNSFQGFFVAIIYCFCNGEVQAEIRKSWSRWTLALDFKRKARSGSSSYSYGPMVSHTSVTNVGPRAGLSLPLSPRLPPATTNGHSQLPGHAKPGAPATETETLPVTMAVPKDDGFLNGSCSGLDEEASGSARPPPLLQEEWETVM

[2] = test system: anesthetized female Sprague-Dawley rats; assay: Hypotensive effect, tail artery pressure in anaesthetized rats
Method: Female Sprague-Dawley rats (weighing over 290 g) were anaesthetized with intraperitoneally injected sodium pentobarbital (65 mg/kg body weight). Rectal temperature was monitored with a YS1402 thermistor (Yellow Springs Instrument Co., Inc. Yellow Springs, Ohio) and maintained between 36.0 and 38.5° C. throughout the experiment. Ear pinna temperature was also monitored using a YSi banjo thermistor. The tail artery was exposed to cannulated with a Jelco 25-gIV catheter (Johnson and Johnson Medical Inc., Arlington, Tex.) and connected to a Statham pressure transducer, the signals from which were recorded digitally with a Biopac Systems MP100 Monitor (Harvard Instruments, Saint Laurent, QC, Canada). For intravenous injection of PTH or one of its fragments, a femoral vein was also exposed. After surgery, the rat was allowed to stabilize for 8 min after which PTH or one of its fragments (dissolved in acidified saline containing 0.001 N HCl) was injected into the femoral vein or under the skin of the abdomen. Data were collected for 12 min after intravenous injection or for 22 min after subcutaneous injection.

[3] = target: T2, PTH receptor (rat (ROS 17/2 rat osteosarcoma cell …, UniProt P25961)); assay: cell-based or functional assay
[4] = target: T2, PTH receptor; assay: cell-based or functional assay; remark: listed apart in the source
[5] = ROS 17/2 cells, concentration for half-maximal increase in AC activity, read-out: Adenylyl Cyclase (EC50)

## CC[C@H](C)[C@H](NC(=O)[C@H](CCC(=O)O)NC(=O)[C@H](CO)NC(=O)[C@@H](NC(=O)[C@@H](N)CO)C(C)C)C(=O)N[C@@H](CCC(N)=O)C(=O)N[C@@H](CC(C)C)C(=O)N[C@@H](CCSC)C(=O)N[C@@H](Cc1c[nH]cn1)C(=O)N[C@@H](CC(N)=O)C(=O)N[C@@H](CC(C)C)C(=O)NCC(=O)N[C@@H](CCCCN)C(=O)N[C@@H](Cc1c[nH]cn1)C(=O)N[C@@H](CC(C)C)C(=O)N[C@@H](CC(N)=O)C(=O)N[C@@H](CO)C(=O)N[C@@H](CCSC)C(=O)N[C@@H](CCC(=O)O)C(=O)N[C@@H](CCCNC(=N)N)C(=O)N[C@H](C(=O)N[C@@H](CCC(=O)O)C(=O)N[C@@H](Cc1c[nH]c2ccccc12)C(=O)N[C@@H](CC(C)C)C(=O)N[C@@H](CCCNC(=N)N)C(=O)N[C@H]1CCCCNC(=O)C[C@@H](C(=O)N[C@H](C(N)=O)C(C)C)NC(=O)[C@H](CCC(N)=O)NC(=O)[C@H](CC(C)C)NC(=O)[C@H](CC(C)C)NC1=O)C(C)C [compound 4, [Leu^27]cyclo(Lys^26-Asp^30)-hPTH-(1-31)-NH2] (H-SVSEIQLMHNLGKHLNSMERVEWLRKLLQDV-NH2; lactam 26-30; N-terminus assumed)
[1]; [5]
  EC50: 3 nM
[1]; ROS cell line, read-out: EC50, AC-stimulating activity
  EC50: 17 ± 3.3 nM
[2]; subcutaneous injection
  hypotensive action, in words: enhanced hypotensive effects

## CC[C@H](C)[C@H](NC(=O)[C@H](CCC(=O)O)NC(=O)[C@H](CO)NC(=O)[C@@H](NC(=O)[C@@H](N)CO)C(C)C)C(=O)N[C@@H](CCC(N)=O)C(=O)N[C@@H](CC(C)C)C(=O)N[C@@H](CCSC)C(=O)N[C@@H](Cc1c[nH]cn1)C(=O)N[C@@H](CC(N)=O)C(=O)N[C@@H](CC(C)C)C(=O)NCC(=O)N[C@@H](CCCCN)C(=O)N[C@@H](Cc1c[nH]cn1)C(=O)N[C@@H](CC(C)C)C(=O)N[C@@H](CC(N)=O)C(=O)N[C@@H](CO)C(=O)N[C@@H](CCSC)C(=O)N[C@@H](CCC(=O)O)C(=O)N[C@@H](CCCN=C(N)N)C(=O)N[C@H](C(=O)N[C@H]1CCC(=O)NCCCC[C@@H](C(=O)N[C@@H](CC(C)C)C(=O)N[C@@H](CC(C)C)C(=O)N[C@@H](CCC(N)=O)C(=O)N[C@@H](CC(=O)O)C(N)=O)NC(=O)[C@H](CCCN=C(N)N)NC(=O)[C@H](CC(C)C)NC(=O)[C@H](Cc2c[nH]c3ccccc23)NC1=O)C(C)C [compound 8, [Leu^27]cyclo(Glu^22Lys^26)-hPTH-(1-30)-NH2] (H-SVSEIQLMHNLGKHLNSMERVEWLRKLLQD-NH2; lactam 22-26)
[1]; [5]
  EC50: 20 nM
[2]; subcutaneous, 0.8 nmol/100 g of body weight
  rate of transport of subcutaneously injected peptide to the vascular system: significantly (p<0.05) reduced rates of transport

## CC[C@H](C)[C@H](NC(=O)[C@H](CCC(=O)O)NC(=O)[C@H](CO)NC(=O)[C@@H](NC(=O)[C@@H](N)CO)C(C)C)C(=O)N[C@@H](CCC(N)=O)C(=O)N[C@@H](CC(C)C)C(=O)N[C@@H](CCSC)C(=O)N[C@@H](Cc1c[nH]cn1)C(=O)N[C@@H](CC(N)=O)C(=O)N[C@@H](CC(C)C)C(=O)NCC(=O)N[C@@H](CCCCN)C(=O)N[C@@H](Cc1c[nH]cn1)C(=O)N[C@@H](CC(C)C)C(=O)N[C@@H](CC(N)=O)C(=O)N[C@@H](CO)C(=O)N[C@@H](CCSC)C(=O)N[C@@H](CCC(=O)O)C(=O)N[C@@H](CCCN=C(N)N)C(=O)N[C@H](C(=O)N[C@H]1CCC(=O)NCCCC[C@@H](C(=O)N[C@@H](CC(C)C)C(=O)N[C@@H](CC(C)C)C(=O)N[C@@H](CCC(N)=O)C(=O)N[C@@H](CC(=O)O)C(=O)N[C@H](C(N)=O)C(C)C)NC(=O)[C@H](CCCN=C(N)N)NC(=O)[C@H](CC(C)C)NC(=O)[C@H](Cc2c[nH]c3ccccc23)NC1=O)C(C)C [peptide 3, [Leu^27]cyclo(Glu^22-Lys^26)-hPTH-(1-31)-NH2] (H-SVSEIQLMHNLGKHLNSMERVEWLRKLLQDV-NH2; lactam 22-26)
[1]; [5]
  EC50: 3 nM
[2]; subcutaneous, 0.8 nmol/100 g, inferred from time to minimum bp
  bioavailability, in words: increased bioavailability

## CC[C@H](C)[C@H](NC(=O)[C@H](CCC(=O)O)NC(=O)[C@H](CO)NC(=O)[C@@H](NC(=O)[C@H](CO)NC(C)=O)C(C)C)C(=O)N[C@@H](CCC(N)=O)C(=O)N[C@@H](CC(C)C)C(=O)N[C@@H](CCSC)C(=O)N[C@@H](Cc1c[nH]cn1)C(=O)N[C@@H](CC(N)=O)C(=O)N[C@@H](CC(C)C)C(=O)NCC(=O)N[C@@H](CCCCN)C(=O)N[C@@H](Cc1c[nH]cn1)C(=O)N[C@@H](CC(C)C)C(=O)N[C@@H](CC(N)=O)C(=O)N[C@@H](CO)C(=O)N[C@@H](CCSC)C(=O)N[C@@H](CCC(=O)O)C(=O)N[C@@H](CCCNC(=N)N)C(=O)N[C@H](C(=O)N[C@H]1CCC(=O)NCCCC[C@@H](C(=O)N[C@@H](CC(C)C)C(=O)N[C@@H](CC(C)C)C(=O)N[C@@H](CCC(N)=O)C(=O)N[C@@H](CC(=O)O)C(=O)N[C@H](C(N)=O)C(C)C)NC(=O)[C@H](CCCNC(=N)N)NC(=O)[C@H](CC(C)C)NC(=O)[C@H](Cc2c[nH]c3ccccc23)NC1=O)C(C)C [α-acetyl-[Leu^27]cyclo(Glu^22—Lys^26)—hPTH—(1-31)-NH2] (Ac-SVSEIQLMHNLGKHLNSMERVEWLRKLLQDV-NH2; lactam 22-26)
[1]; [5]
  EC50: 24 nM

## SVSEIQLMHNLGKHLNSMERVEWLRKLLQDV-NH2 [[Leu^27]-hPTH-(1-31)-NH2]
[3]
  AC activity in the ROS cell line, EC50: 11.5 nM

B1: [Leu^27]cyclo(Glu^22-Lys^26)-hPTH-(1-31)-NH2 (peptide)
peptide: SVSEIQLMHNLGKHLNSMERVEWLRKLLQDV-NH2
modifications: lactam 22-26; N-terminus assumed
SMILES: CC[C@H](C)[C@H](NC(=O)[C@H](CCC(=O)O)NC(=O)[C@H](CO)NC(=O)[C@@H](NC(=O)[C@@H](N)CO)C(C)C)C(=O)N[C@@H](CCC(N)=O)C(=O)N[C@@H](CC(C)C)C(=O)N[C@@H](CCSC)C(=O)N[C@@H](Cc1c[nH]cn1)C(=O)N[C@@H](CC(N)=O)C(=O)N[C@@H](CC(C)C)C(=O)NCC(=O)N[C@@H](CCCCN)C(=O)N[C@@H](Cc1c[nH]cn1)C(=O)N[C@@H](CC(C)C)C(=O)N[C@@H](CC(N)=O)C(=O)N[C@@H](CO)C(=O)N[C@@H](CCSC)C(=O)N[C@@H](CCC(=O)O)C(=O)N[C@@H](CCCNC(=N)N)C(=O)N[C@H](C(=O)N[C@H]1CCC(=O)NCCCC[C@@H](C(=O)N[C@@H](CC(C)C)C(=O)N[C@@H](CC(C)C)C(=O)N[C@@H](CCC(N)=O)C(=O)N[C@@H](CC(=O)O)C(=O)N[C@H](C(N)=O)C(C)C)NC(=O)[C@H](CCCNC(=N)N)NC(=O)[C@H](CC(C)C)NC(=O)[C@H](Cc2c[nH]c3ccccc23)NC1=O)C(C)C
[3]
  AC-stimulating activity, EC50: 3.3 nM
[4]
  Adenylyl Cyclase (EC50): 3 nM

B2: [Leu^27]cyclo(Lys^26-Asp^30)-hPTH-(1-31)-NH2 (peptide)
peptide: SVSEIQLMHNLGKHLNSMERVEWLRKLLQDV-NH2
modifications: lactam 26-30; N-terminus assumed
SMILES: CC[C@H](C)[C@H](NC(=O)[C@H](CCC(=O)O)NC(=O)[C@H](CO)NC(=O)[C@@H](NC(=O)[C@@H](N)CO)C(C)C)C(=O)N[C@@H](CCC(N)=O)C(=O)N[C@@H](CC(C)C)C(=O)N[C@@H](CCSC)C(=O)N[C@@H](Cc1c[nH]cn1)C(=O)N[C@@H](CC(N)=O)C(=O)N[C@@H](CC(C)C)C(=O)NCC(=O)N[C@@H](CCCCN)C(=O)N[C@@H](Cc1c[nH]cn1)C(=O)N[C@@H](CC(C)C)C(=O)N[C@@H](CC(N)=O)C(=O)N[C@@H](CO)C(=O)N[C@@H](CCSC)C(=O)N[C@@H](CCC(=O)O)C(=O)N[C@@H](CCCNC(=N)N)C(=O)N[C@H](C(=O)N[C@@H](CCC(=O)O)C(=O)N[C@@H](Cc1c[nH]c2ccccc12)C(=O)N[C@@H](CC(C)C)C(=O)N[C@@H](CCCNC(=N)N)C(=O)N[C@H]1CCCCNC(=O)C[C@@H](C(=O)N[C@H](C(N)=O)C(C)C)NC(=O)[C@H](CCC(N)=O)NC(=O)[C@H](CC(C)C)NC(=O)[C@H](CC(C)C)NC1=O)C(C)C
[3]
  adenylyl cyclase stimulation, EC50: 17 nM

— patent publication US6541450B1, “Parathyroid hormone analogues for the treatment of osteoporosis” (National Research Council of Canada, priority 1994, dated 2003)
